Assay results reported in PubChem BioAssay (NCI).
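Values below derive from 48-hour exposures of cells grown in 96-well plates, with endpoints linearly interpolated between the two concentrations bracketing the appropriate inhibition level. TGI: concentration producing complete growth inhibition.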

Legend:
Assay in all cases: NCI tumour cell line growth inhibition, 48 h
786-0 renal = test system: 786-0 renal
A549 NSCLC = test system: A549 NSCLC
ACHN renal = test system: ACHN renal
CAKI-1 renal = test system: CAKI-1 renal
CCRF-CEM leukemia = test system: CCRF-CEM leukemia
COLO 205 colon = test system: COLO 205 colon
DLD-1 colon = test system: DLD-1 colon
DMS 114 small cell lung = test system: DMS 114 small cell lung
DMS 273 small cell lung = test system: DMS 273 small cell lung
EKVX NSCLC = test system: EKVX NSCLC
HCC-2998 colon = test system: HCC-2998 colon
HCT-116 colon = test system: HCT-116 colon
HCT-15 colon = test system: HCT-15 colon
HL-60(TB) leukemia = test system: HL-60(TB) leukemia
HOP-18 NSCLC = test system: HOP-18 NSCLC
HOP-62 NSCLC = test system: HOP-62 NSCLC
HT29 colon = test system: HT29 colon
IGROV1 ovarian = test system: IGROV1 ovarian
K-562 leukemia = test system: K-562 leukemia
KM12 colon = test system: KM12 colon
KM20L2 colon = test system: KM20L2 colon
LOX IMVI melanoma = test system: LOX IMVI melanoma
LXFL 529 NSCLC = test system: LXFL 529 NSCLC
M14 melanoma = test system: M14 melanoma
M19-MEL melanoma = test system: M19-MEL melanoma
MALME-3M melanoma = test system: MALME-3M melanoma
MOLT-4 leukemia = test system: MOLT-4 leukemia
NCI-H226 lung = test system: NCI-H226 lung
NCI-H23 lung = test system: NCI-H23 lung
NCI-H460 lung = test system: NCI-H460 lung
NCI-H522 lung = test system: NCI-H522 lung
OVCAR-4 ovarian = test system: OVCAR-4 ovarian
OVCAR-5 ovarian = test system: OVCAR-5 ovarian
OVCAR-8 ovarian = test system: OVCAR-8 ovarian
RPMI-8226 leukemia = test system: RPMI-8226 leukemia
RXF 393 renal = test system: RXF 393 renal
SF-268 CNS = test system: SF-268 CNS
SF-295 CNS = test system: SF-295 CNS
SF-539 CNS = test system: SF-539 CNS
SK-MEL-2 melanoma = test system: SK-MEL-2 melanoma
SK-MEL-28 melanoma = test system: SK-MEL-28 melanoma
SK-MEL-5 melanoma = test system: SK-MEL-5 melanoma
SK-OV-3 ovarian = test system: SK-OV-3 ovarian
SN12C renal = test system: SN12C renal
SNB-19 CNS = test system: SNB-19 CNS
SNB-75 CNS = test system: SNB-75 CNS
SNB-78 CNS = test system: SNB-78 CNS
SR leukemia = test system: SR leukemia
SW-620 colon = test system: SW-620 colon
TK-10 renal = test system: TK-10 renal
U251 CNS = test system: U251 CNS
UACC-257 melanoma = test system: UACC-257 melanoma
UACC-62 melanoma = test system: UACC-62 melanoma
UO-31 renal = test system: UO-31 renal
XF 498 CNS = test system: XF 498 CNS
A498 renal = test system: A498 renal
HOP-92 NSCLC = test system: HOP-92 NSCLC
OVCAR-3 ovarian = test system: OVCAR-3 ovarian

## Cn1c(=O)oc2cc(C3CCC(=O)N3Cc3ccc(Cl)cc3)ccc21 (stereo not given)
786-0 renal
  TGI: > 100 µM
A549 NSCLC
  TGI: > 100 µM
ACHN renal
  TGI: > 100 µM
CAKI-1 renal
  TGI: > 100 µM
CCRF-CEM leukemia
  TGI: > 100 µM
COLO 205 colon
  TGI: > 100 µM
DLD-1 colon
  TGI: > 100 µM
DMS 114 small cell lung
  TGI: > 100 µM
DMS 273 small cell lung
  TGI: > 100 µM
EKVX NSCLC
  TGI: > 100 µM
HCC-2998 colon
  TGI: > 100 µM
HCT-116 colon
  TGI: > 100 µM
HCT-15 colon
  TGI: > 100 µM
HL-60(TB) leukemia
  TGI: > 100 µM
HOP-18 NSCLC
  TGI: > 100 µM
HOP-62 NSCLC
  TGI: > 100 µM
HT29 colon
  TGI: > 100 µM
IGROV1 ovarian
  TGI: > 100 µM
K-562 leukemia
  TGI: > 100 µM
KM12 colon
  TGI: > 100 µM
KM20L2 colon
  TGI: > 100 µM
LOX IMVI melanoma
  TGI: > 100 µM
LXFL 529 NSCLC
  TGI: > 100 µM
M14 melanoma
  TGI: > 100 µM
M19-MEL melanoma
  TGI: > 100 µM
MALME-3M melanoma
  TGI: > 100 µM
MOLT-4 leukemia
  TGI: > 100 µM
NCI-H226 lung
  TGI: > 100 µM
NCI-H23 lung
  TGI: > 100 µM
NCI-H460 lung
  TGI: > 100 µM
NCI-H522 lung
  TGI: > 100 µM
OVCAR-4 ovarian
  TGI: > 100 µM
OVCAR-5 ovarian
  TGI: > 100 µM
OVCAR-8 ovarian
  TGI: > 100 µM
RPMI-8226 leukemia
  TGI: > 100 µM
RXF 393 renal
  TGI: > 100 µM
SF-268 CNS
  TGI: > 100 µM
SF-295 CNS
  TGI: > 100 µM
SF-539 CNS
  TGI: > 100 µM
SK-MEL-2 melanoma
  TGI: > 100 µM
SK-MEL-28 melanoma
  TGI: > 100 µM
SK-MEL-5 melanoma
  TGI: > 100 µM
SK-OV-3 ovarian
  TGI: > 100 µM
SN12C renal
  TGI: > 100 µM
SNB-19 CNS
  TGI: > 100 µM
SNB-75 CNS
  TGI: > 100 µM
SNB-78 CNS
  TGI: > 100 µM
SR leukemia
  TGI: > 100 µM
SW-620 colon
  TGI: > 100 µM
TK-10 renal
  TGI: > 100 µM
U251 CNS
  TGI: > 100 µM
UACC-257 melanoma
  TGI: > 100 µM
UACC-62 melanoma
  TGI: > 100 µM
UO-31 renal
  TGI: > 100 µM
XF 498 CNS
  TGI: > 100 µM

## Cc1cc2c(cc1Br)C1(C)CCC(C)C1(C)O2 (stereo not given)
786-0 renal
  TGI: 66.8 µM
A498 renal
  TGI: > 100 µM
A549 NSCLC
  TGI: > 100 µM
ACHN renal
  TGI: > 100 µM
CAKI-1 renal
  TGI: > 100 µM
CCRF-CEM leukemia
  TGI: 56.1 µM
COLO 205 colon
  TGI: 29.8 µM
DLD-1 colon
  TGI: > 100 µM
DMS 114 small cell lung
  TGI: 52 µM
DMS 273 small cell lung
  TGI: 50.4 µM
EKVX NSCLC
  TGI: > 100 µM
HCC-2998 colon
  TGI: > 100 µM
HCT-116 colon
  TGI: 29.1 µM
HCT-15 colon
  TGI: > 100 µM
HL-60(TB) leukemia
  TGI: 34.1 µM
HOP-18 NSCLC
  TGI: > 100 µM
HOP-62 NSCLC
  TGI: > 100 µM
HOP-92 NSCLC
  TGI: 53.7 µM
HT29 colon
  TGI: > 100 µM
IGROV1 ovarian
  TGI: > 100 µM
K-562 leukemia
  TGI: 37.6 µM
KM12 colon
  TGI: > 100 µM
KM20L2 colon
  TGI: > 100 µM
LOX IMVI melanoma
  TGI: 35.4 µM
LXFL 529 NSCLC
  TGI: > 100 µM
M14 melanoma
  TGI: > 100 µM
M19-MEL melanoma
  TGI: 70.1 µM
MALME-3M melanoma
  TGI: 42.1 µM
MOLT-4 leukemia
  TGI: 35.6 µM
NCI-H226 lung
  TGI: 50 µM
NCI-H23 lung
  TGI: 67.4 µM
NCI-H460 lung
  TGI: 53.7 µM
OVCAR-3 ovarian
  TGI: 53.2 µM
OVCAR-4 ovarian
  TGI: > 100 µM
OVCAR-5 ovarian
  TGI: > 100 µM
OVCAR-8 ovarian
  TGI: > 100 µM
RPMI-8226 leukemia
  TGI: 33.2 µM
RXF 393 renal
  TGI: 32.1 µM
SF-268 CNS
  TGI: > 100 µM
SF-295 CNS
  TGI: 54.6 µM
SF-539 CNS
  TGI: > 100 µM
SK-MEL-2 melanoma
  TGI: 37.8 µM
SK-MEL-28 melanoma
  TGI: > 100 µM
SK-MEL-5 melanoma
  TGI: 80.1 µM
SK-OV-3 ovarian
  TGI: > 100 µM
SN12C renal
  TGI: 80.9 µM
SNB-19 CNS
  TGI: > 100 µM
SNB-75 CNS
  TGI: > 100 µM
SNB-78 CNS
  TGI: > 100 µM
SR leukemia
  TGI: 30.5 µM
SW-620 colon
  TGI: > 100 µM
TK-10 renal
  TGI: > 100 µM
U251 CNS
  TGI: 50.5 µM
UACC-257 melanoma
  TGI: 98.8 µM
UACC-62 melanoma
  TGI: > 100 µM
UO-31 renal
  TGI: > 100 µM
XF 498 CNS
  TGI: 50.6 µM

## CCOC12SC(=Nc3ccc(C)cc3)NN1C(=S)N(C)N=C2C (stereo not given)
786-0 renal
  TGI: > 100 µM
A498 renal
  TGI: > 100 µM
A549 NSCLC
  TGI: > 100 µM
ACHN renal
  TGI: > 100 µM
CCRF-CEM leukemia
  TGI: > 100 µM
COLO 205 colon
  TGI: > 100 µM
DLD-1 colon
  TGI: > 100 µM
DMS 114 small cell lung
  TGI: > 100 µM
DMS 273 small cell lung
  TGI: > 100 µM
EKVX NSCLC
  TGI: > 100 µM
HCT-116 colon
  TGI: > 100 µM
HCT-15 colon
  TGI: > 100 µM
HL-60(TB) leukemia
  TGI: > 100 µM
HOP-18 NSCLC
  TGI: > 100 µM
HOP-62 NSCLC
  TGI: > 100 µM
HOP-92 NSCLC
  TGI: > 100 µM
HT29 colon
  TGI: > 100 µM
IGROV1 ovarian
  TGI: > 100 µM
K-562 leukemia
  TGI: > 100 µM
KM12 colon
  TGI: > 100 µM
KM20L2 colon
  TGI: > 100 µM
LOX IMVI melanoma
  TGI: > 100 µM
LXFL 529 NSCLC
  TGI: > 100 µM
M14 melanoma
  TGI: > 100 µM
M19-MEL melanoma
  TGI: > 100 µM
MOLT-4 leukemia
  TGI: > 100 µM
NCI-H226 lung
  TGI: > 100 µM
NCI-H23 lung
  TGI: > 100 µM
NCI-H460 lung
  TGI: > 100 µM
NCI-H522 lung
  TGI: > 100 µM
OVCAR-4 ovarian
  TGI: > 100 µM
OVCAR-5 ovarian
  TGI: > 100 µM
OVCAR-8 ovarian
  TGI: > 100 µM
RPMI-8226 leukemia
  TGI: > 100 µM
RXF 393 renal
  TGI: > 100 µM
SF-268 CNS
  TGI: > 100 µM
SF-295 CNS
  TGI: > 100 µM
SF-539 CNS
  TGI: > 100 µM
SK-MEL-28 melanoma
  TGI: > 100 µM
SK-MEL-5 melanoma
  TGI: > 100 µM
SN12C renal
  TGI: > 100 µM
SNB-19 CNS
  TGI: > 100 µM
SNB-75 CNS
  TGI: > 100 µM
SR leukemia
  TGI: > 100 µM
SW-620 colon
  TGI: > 100 µM
U251 CNS
  TGI: > 100 µM
UACC-257 melanoma
  TGI: > 100 µM
UACC-62 melanoma
  TGI: > 100 µM
